Reference: ChEMBL document CHEMBL2380228, “Nucleotide competing reverse transcriptase inhibitors: discovery of a series of non-basic benzofurano[3,2-d]pyrimidin-2-one derived inhibitors” (Bioorg Med Chem Lett, 2013)
pEC50, pIC50: −log10 of the molar value. Values after ≈ are worked out from the molar mass of the structure shown.

Experiments:
[1] = Inhibition of HIV-1 BH10 reverse transcriptase using poly(rA)/oligo(dT)15 as substrate after 60 mins by plate reader analysis; set-up: species or system Human immunodeficiency virus type 1 BH10
[2] = Solubility of the compound in phosphate buffer at pH 6.8 after 24 hrs at 25 degC by LC-MS analysis; type: physicochemical
[3] = Permeability from apical to basolateral side of human Caco2 cells; type: ADME, cell-based; settings: Caco-2, read-out: permeability
[4] = Solubility of the compound in phosphate buffer at pH 2.0 after 24 hrs at 25 degC by LC-MS analysis; type: physicochemical
[5] = Clearance in human liver microsomes at 1 uM by LC-MS/MS analysis relative to hepatic blood flow; type: ADME, Microsome; settings: read-out: CLH
[6] = Cytotoxicity against human C8166-LTR-Luc cells after 3 days by MTT assay; type: cell-based
[7] = system: Human immunodeficiency virus 1; test: Antiviral activity against wild type HIV1-infected human C8166 cells after 1.5 hrs by luciferase reporter gene assay; type: functional, organism-based; settings: Human immunodeficiency virus 1, C8166, 1.5 h
[8] = Lipophilicity, log D of the compound in n-octanol buffer at 0.5 mg after 2 to 24 hrs by LC-MS analysis; type: physicochemical
[9] = system: Human immunodeficiency virus type 1 BH10; test: Inhibition of HIV-1 BH10 reverse transcriptase using poly(rA)/oligo(dT)15 as substrate at > 365 nM after 60 mins by plate reader analysis
[10] = system: Human immunodeficiency virus type 1 BH10; test: Inhibition of HIV-1 BH10 reverse transcriptase using poly(rA)/oligo(dT)15 as substrate at > 685 nM after 60 mins by plate reader analysis
[11] = system: Human immunodeficiency virus type 1 BH10; test: Inhibition of HIV-1 BH10 reverse transcriptase using poly(rA)/oligo(dT)15 as substrate at > 1100 nM after 60 mins by plate reader analysis
[12] = system: Human immunodeficiency virus type 1 BH10; test: Inhibition of HIV-1 BH10 reverse transcriptase using poly(rA)/oligo(dT)15 as substrate at > 4700 nM after 60 mins by plate reader analysis
[13] = Clearance in rat liver microsomes at 1 uM by LC-MS/MS analysis relative to hepatic blood flow; type: ADME, Microsome; settings: read-out: CLH
[14] = Cytotoxicity against human C8166-LTR-Luc cells assessed as inhibition of cell viability at > 3.6 uM after 3 days by MTT assay; type: cell-based; settings: read-out: INH

pIC50 [1]	Papp A→B [3]	hepatic extraction ratio at 1 µM [5]	pEC50 [7]	Structure (SMILES)	CC50 at 72 h [6]	further results
7.57				CCCCCn1c(=O)nc(-c2ccccc2)c2oc3ccc(-c4ccc(CN(C)C)cc4)cc3c21		
8.52	0.4 ×10⁻⁶ cm/s	0.67	8.22	COCCCn1c(=O)nc(-c2ccc(N3CCN(C)CC3)nc2)c2oc3ccc(-c4cnn(C)c4)cc3c21	> 21700 nM	solubility at 24 h [2]: > 1000 µg/mL; solubility at 24 h [4]: > 1000 µg/mL; logD [8]: 3
< 6.44				CN(C)Cc1ccc(-c2ccc3oc4c(-c5ccccc5)nc(=O)n(CCCc5ccccc5)c4c3c2)cc1		inhibition [9]: 25%
6.72				CC(C)CCn1c(=O)nc(-c2ccccc2)c2oc3ccc(-c4ccc(CN(C)C)cc4)cc3c21		
8.00	8 ×10⁻⁶ cm/s	0.61	6.89	COCCCn1c(=O)nc(-c2ccc(N3CCN(CCOC)CC3)cc2)c2oc3ccc(Cl)cc3c21	> 4200 nM	
< 6.16				CCCn1c(=O)nc(-c2ccccc2)c2oc3ccc(-c4ccc(CN(C)C)cc4)cc3c21		inhibition [10]: 45%
8.10	12 ×10⁻⁶ cm/s	0.78	7.25	COCCCn1c(=O)nc(-c2ccc(N3CCN(CCOC)CC3)nc2)c2oc3ccc(Cl)cc3c21		
6.18				CC(C)Cn1c(=O)nc(-c2ccccc2)c2oc3ccc(-c4ccc(CN(C)C)cc4)cc3c21		
6.05				CCn1c(=O)nc(-c2ccccc2)c2oc3ccc(-c4ccc(CN(C)C)cc4)cc3c21		
8.82	3.1 ×10⁻⁶ cm/s	0.61	7.89	CNc1ccc(-c2nc(=O)n(CCC3CCCO3)c3c2oc2ccc(-c4cnn(C)c4)cc23)cn1 (racemic)	3800 nM	solubility at 24 h [2]: > 984 µg/mL; solubility at 24 h [4]: > 1000 µg/mL; logD [8]: 3.4
8.70	9.8 ×10⁻⁶ cm/s	0.81	7.74	CCCCCn1c(=O)nc(-c2ccc(NC)nc2)c2oc3ccc(-c4cnn(C)c4)cc3c21	4000 nM	solubility at 24 h [2]: 0.27 µg/mL (≈ 0.61 µM); solubility at 24 h [4]: > 1000 µg/mL; logD [8]: 4.7
8.04	2.7 ×10⁻⁶ cm/s	0.51	7.46	COCCCn1c(=O)nc(-c2ccc(N3CCN(C(C)C)CC3)cc2)c2oc3ccc(Cl)cc3c21	2300 nM	
				CNc1ccc(-c2nc(=O)n(CC[C@H]3CCCO3)c3c2oc2ncc(-c4cnn(C)c4)cc23)cn1		solubility at 24 h [2]: 1.2 µg/mL (≈ 2.54 µM); solubility at 24 h [4]: > 871 µg/mL
8.77	0.3 ×10⁻⁶ cm/s	0.28	7.60	COCCCn1c(=O)nc(-c2ccc(N3CCNCC3)cc2)c2oc3ccc(Cl)cc3c21	2700 nM	
				CNc1ccc(-c2nc(=O)n(CC[C@@H]3CCCO3)c3c2oc2ncc(-c4cnn(C)c4)cc23)cn1		solubility at 24 h [2]: > 928 µg/mL; solubility at 24 h [4]: > 844 µg/mL
6.71				COC[C@H](C)Cn1c(=O)nc(-c2ccccc2)c2oc3ccc(-c4ccc(CN(C)C)cc4)cc3c21		
6.10				CC(C)n1c(=O)nc(-c2ccccc2)c2oc3ccc(-c4ccc(CN(C)C)cc4)cc3c21		

pIC50 [1]	Papp A→B [3]	hepatic extraction ratio at 1 µM [5]	pEC50 [7]	Structure (SMILES)	CC50 at 72 h [6]	further results
< 5.96				CCOC(=O)CCCn1c(=O)nc(-c2ccccc2)c2oc3ccc(-c4ccc(CN(C)C)cc4)cc3c21		inhibition [11]: 14%
8.52	2.6 ×10⁻⁶ cm/s	0.59	7.43	COCCCn1c(=O)nc(-c2ccc(N3CCN(C(C)C)CC3)nc2)c2oc3ccc(Cl)cc3c21	> 3200 nM	
< 5.33				CN(C)Cc1ccc(-c2ccc3oc4c(-c5ccccc5)nc(=O)n(CCCC(=O)O)c4c3c2)cc1		inhibition [12]: 46%
6.19				CN(C)Cc1ccc(-c2ccc3oc4c(-c5ccccc5)nc(=O)n(C)c4c3c2)cc1		
6.61				CN(C)Cc1ccc(-c2ccc3oc4c(-c5ccccc5)nc(=O)n(-c5ccccc5)c4c3c2)cc1		
8.40	< 0.1 ×10⁻⁶ cm/s	0.29	7.52	CCNCC(=O)Nc1ccc(-c2nc(=O)n(CCOC)c3c2oc2ccc(-c4ccc5c(c4)CCN(C)C5)cc23)cc1	4100 nM	hepatic extraction ratio at 1 µM [13]: 0.11
8.55	< 0.1 ×10⁻⁶ cm/s	0.46	7.48	CCNCC(=O)Nc1ccc(-c2nc(=O)n(CCCOC)c3c2oc2ccc(Cl)cc23)cc1	> 8600 nM	
7.07				COCCCCn1c(=O)nc(-c2ccccc2)c2oc3ccc(-c4ccc(CN(C)C)cc4)cc3c21		
7.38				CCCCn1c(=O)nc(-c2ccccc2)c2oc3ccc(-c4ccc(CN(C)C)cc4)cc3c21		
8.40	1.6 ×10⁻⁶ cm/s	0.5	6.83	CNc1ccc(-c2nc(=O)n(CCCOC)c3c2oc2ccc(-c4cnn(C)c4)cc23)cn1	> 17000 nM	solubility at 24 h [2]: > 1000 µg/mL; solubility at 24 h [4]: > 1000 µg/mL
8.14				Cc1ccc(-n2c(=O)nc(-c3ccccc3)c3oc4ccc(-c5ccc(CN(C)C)cc5)cc4c32)cc1C#N		
6.20				COC[C@@H](C)Cn1c(=O)nc(-c2ccccc2)c2oc3ccc(-c4ccc(CN(C)C)cc4)cc3c21		
7.26				CC(C)CCCn1c(=O)nc(-c2ccccc2)c2oc3ccc(-c4ccc(CN(C)C)cc4)cc3c21		
7.89	8.9 ×10⁻⁶ cm/s	0.52	6.54	COCCCn1c(=O)nc(-c2ccc(N3CCN(C4CC4)CC3)cc2)c2oc3ccc(Cl)cc3c21	> 3600 nM	cytotoxicity at 72 h [14]: 20%
5.63				COCCn1c(=O)nc(-c2ccccc2)c2oc3ccc(-c4ccc(CN(C)C)cc4)cc3c21		
7.41				COCCCn1c(=O)nc(-c2ccccc2)c2oc3ccc(-c4ccc(CN(C)C)cc4)cc3c21		
8.77				CN(C)Cc1ccc(-c2ccc3oc4c(-c5ccccc5)nc(=O)n(-c5ccc([N+](=O)[O-])cc5)c4c3c2)cc1		
